Laboratory results reported in patent publication US8293803B2, “Retinoid compounds and their use” (Reinnervate Limited, priority 2006, dated 2012).

Key:
[1] = Stability in D6-DMSO, 3 days dark under air versus fluorescent light (1H NMR); assay type: physicochemical
From the text: FIG. 6 ^1H NMR (500 MHz) spectrum (d 5.40-7.80) of ATRA in D6-DMSO in a glass NMR tube after 3 days in the dark under air (top), versus 3 days exposure to fluorescent light (bottom).
FIG. 7 ^1H NMR (500 MHz) spectrum (d 7.20-8.10) of EC23 (10a(i) (R′═H)) in D6-DMSO in a glass NMR tube after 3 days in the dark under air (top), versus 3 days exposure to fluorescent light (bottom).
In order to study the relative stability of certain synthetic retinoids versus the natural systems, solutions of each were exposed to different environmental conditions and then studied by NMR.

[2] = Stability at room temperature for 1 week (HNMR); assay type: physicochemical
Description: (§1) In order to test the sensitivity of the natural retinoids, 10 mM samples in either DMSO or deuterochloroform were exposed to either 37° C., laboratory light (approximately 500 lux), white light (approximately 1250 lux) or UV light. Upon isomerisation HNMR spectra of samples were taken and compared to HNMR spectra of pure samples. The % peak intensities from the HNMR spectra were used to quantify levels of the different retinoic acids and any other compounds that may be present.
Samples of ATRA and 13CRA, were left at room temperature for 1 week. The degraded solution of 13CRA contained around 78% 13CRA. […] All of the above experiments highlight retinoic acids inherent instability, not only in light, but also at 37° C. and even at room temperature.

[3] = Photoisomerisation under white light (HNMR); assay type: physicochemical
Description: as §1
(§2) The sensitivity of retinoic acids to light was tested by placing samples of ATRA, 9CRA and 13CRA in one of three lighting conditions for varying lengths of time. Samples were exposed to either normal laboratory light conditions, white light or UV light. HNMR spectra were then compared to those of pure samples.
(§3) Samples of synthetic retinoids 12(ii), 12(i) and 13 were exposed to 1 hour of laboratory light, 1 hour of white light and 1 hour of UV light. HNMR spectra from samples exposed to lab light and white light were identical to those of pure compounds. […] UV light is emitted at a frequency likely to excite the conjugated double bond region of these synthetic retinoids, resulting in the slight degradation observed. 12(ii) and 12(i) were stable under laboratory light and white light. 13 was stable when exposed to all forms of light.

[4] = Temperature sensitivity of retinoic acids at 37 °C (HNMR); assay type: physicochemical; conditions: 37° C. water bath, HNMR peak intensities
Description: as §1
Temperature sensitivity was tested by placing solutions of retinoic acids in a 37° C. water bath for varying time lengths. After 1 hour at 37° C. approximate levels of the initial retinoic acid were 85% for a 13CRA sample and 100% for an ATRA sample. This decreased to 73% for a 13CRA sample and 86% for an ATRA sample after 24 hours.

[5] = ATRA in ethanol, white light, 30 minutes; cited from earlier work
[6] = test system: neuroprogenitor cells derived from the adult rat hippocampus; test: Differentiation of adult neuroprogenitor cells; assay type: cell-based; conditions: adult rat hippocampal neuroprogenitor cells; β-tubulin-III staining
Description: (§4) The biological activity of compounds 6, 10, 11, 12 and 13 were determined by exposing these molecules at various concentrations to different mammalian stem cell systems, namely (1) human pluripotent stem cells; and (2) rat adult neuroprogenitor cells.
The biological activity of the synthetic retinoid EC23 (10a(i)) was also evaluated by exposing it to neuroprogenitor cells derived from the adult rat hippocampus. […] Immunocytochemical staining for the marker β-tubulin-III was used to confirm neuronal identity (data not shown).

[7] = Photoisomerisation under UV light (HNMR); assay type: physicochemical; conditions: over 12 hours
Description: as §1, §2
FIGS. 4 and 5 show the relative ratios of the natural retinoic acids found in samples of ATRA and 13CRA isomerised in UV light for 1 hour and 12 hours.
as §3, with “12(ii) and 12(i) were stable under laboratory light and white light. 13 was stable when exposed to all forms of light.” left out

[8] = test system: human pluripotent stem cells; test: Differentiation of human pluripotent stem cells, morphology and immunocytochemistry / immunofluorescent microscopy; assay type: cell-based; conditions: for formation of neurons: confirmed by immunocytochemistry
Description: as §4
Tissue development by human pluripotent stem cells closely resembles that which occurs during normal embryogenesis in utero and this cell system is a proven and accepted model of cell differentiation (Przyborski et al, Stem Cells Dev., 2004, 13:400-408). […]

[9] = Photoisomerisation under laboratory light (HNMR); assay type: physicochemical; conditions: laboratory light (approx. 500 lux), 1 hour and 24 hours
Description: as §1, §2
The relative ratios of the natural retinoic acid isomers found in samples of ATRA and 13CRA isomerised in lab light for 1 hour and 24 hours can be seen in FIGS. 1 and 2. The new peaks in HNMR spectra increased in size, and so levels of isomerisation products increased over 24 hours but not to any great extent.
Samples of synthetic retinoids 12(ii), 12(i) and 13 were exposed to 1 hour of laboratory light, 1 hour of white light and 1 hour of UV light. HNMR spectra from samples exposed to lab light and white light were identical to those of pure compounds. […]

stem cells = test: Modulation of cell differentiation (summary statement); assay type: cell-based; conditions: conditions not given
Description: (§5) The application of this technology to systems both with and without a methyl group (e.g. in 6a versus 6b), is important because it allows control of relative rotational orientation of the aryl and vinyl groups which has important implications for the control of conformation as a design principle for developing receptor-selective retinoid analogues.
as §4

[10] = Stability (summary statement); assay type: physicochemical; conditions: conditions not given
From the text: as §5

TERA2.cl.SP12 cells = test: Proliferation and cytotoxicity in TERA2.cl.SP12 cultures; assay type: cell-based, human
[11] = test system: human pluripotent TERA2.cl.SP12 embryonal carcinoma stem cells; test: Flow cytometry of cell surface antigen expression on human pluripotent stem cells; assay type: cell-based; conditions: 14 day test period; comparable to non-isomerised ATRA
Description: FIG. 8 Flow cytometric analysis of cell surface antigen expression for markers of stem cells (ssea-3, tra-1-60) and differentiated derivatives (vinis-53, a2b5) when cultures of human pluripotent embryonal carcinoma stem cells (TERA2.SP12) exposed to either 10 μM ATRA or 10 μM EC23 (10a(i) (R′═H)).
FIG. 9 Flow cytometric analysis of cell surface antigen expression on human pluripotent TERA2.cl.SP12 embryonal carcinoma stem cells (undiff) and their differentiated derivatives after 7 days exposure to either ATRA; 3Me-CEBX (12); 3Me-EC19 (10b(ii) R′═H); 3Me-EC23 (10b(i) (R′═H)); 4Me-TTN (6b(i)(R′═H)); all used at 1 μM. DMSO was used as a vehicle control.
as §4
Tissue development by human pluripotent stem cells closely resembles that which occurs during normal embryogenesis in utero and this cell system is a proven and accepted model of cell differentiation (Przyborski et al, Stem Cells Dev., 2004, 13:400-408).
The expression of cell surface antigens that are known to change as these stem cells commit to differentiate, was assessed by flow cytometry.
Flow cytometry was also used to assay for the effect(s) of compounds 6, 10 and (FIGS. 8 and 9).

[12] = 3 days exposure to fluorescent light, DMSO, NMR
[13] = 1 hour, 10 mM in DMSO or deuterochloroform
[14] = 10 μM, 21 days, immunofluorescent microscopy

CC1=C(/C=C/C(C)=C/C=C/C(C)=C/C(=O)O)C(C)(C)CCC1 [ATRA, All-trans-retinoic acid]
amount remaining [1, 12]: 37% | isomerisation and degradation [1, 12]: 63% | stability by NMR ([1]; 3 days in the dark in air in DMSO): reasonably stable | content of the initial retinoic acid in the solution [2]: 94% | level of ATRA ([3]; white light (approx. 1250 lux), 1 hour): 76% | level of ATRA ([3]; white light, 6 hours): 43% | level of ATRA ([3]; white light, 24 hours): 21% | approximate level of the initial retinoic acid [4, 13]: ~100% | approximate level of the initial retinoic acid ([4]; 24 hours): ~86% | relative concentration of 9, 13-dicis RA in the isomerised ATRA sample [5]: 5% | relative concentration of 9CRA in the isomerised ATRA sample [5]: 10% | relative concentration of 11CRA in the isomerised ATRA sample [5]: 10% | relative concentration of 13CRA in the isomerised ATRA sample [5]: 30% | relative concentration of ATRA in the isomerised ATRA sample [5]: 25% | relative concentration of an unidentified compound in the isomerised ATRA sample [5]: 20% | differentiation into neurons [6]: primarily form neurons | degradation in UV light [7]: rapidly degraded | epithelial plaques (cytokeratin-8) [8, 14]: numerous epithelial plaques | formation of neurons / neuronal differentiation [8, 14]: induced the formation of neurons | relative stability in laboratory light [9]: marginally more stable than 13CRA

CC(=Cc1ccc(C(=O)O)cc1)c1cc2c(cc1C)C(C)(C)CCC2(C)C [Compound 6bi, 4-[2-(3,5,5,8,8-Pentamethyl-5,6,7,8-tetrahydro-naphthalen-2-yl)propenyl]benzoic acid]
efficacy in modulating cell differentiation (stem cells): efficacious in modulating cell differentiation | stability [10]: particularly stable

CC1(C)CCC(C)(C)c2cc(C#Cc3cccc(C(=O)O)c3)ccc21 [10a(ii)]
cells immuno-positive for Tuj-1 and NF200 [8, 14]: only a few cells immuno-positive | epithelial plaques (cytokeratin-8) [8, 14]: large numbers of cytokertin-8 positive epithelial plaques | formation of neurons / neuronal differentiation [8, 14]: formation of very few neurons | nestin expression [8, 14]: nestin staining reduced | formation of epithelial cells ([8]; morphology): formation of epithelial cells | formation of neurons ([8]; morphology): Neurons were not identified

COC(=O)c1cccc(C=C(C)c2ccc3c(c2)C(C)(C)CCC3(C)C)c1 [Compound 6aii, 3-[2-(5,5,8,8-Tetramethyl-5,6,7,8-tetrahydronaphthalen-2-yl)-propenyl]-benzoic acid methyl ester]
efficacy in modulating cell differentiation (stem cells): efficacious in modulating cell differentiation | stability [10]: particularly stable

CC1=C(/C=C/C(C)=C/C=C/C(C)=C\C(=O)O)C(C)(C)CCC1 [Compound 13CRA, 13-cis-retinoic acid]
content of the initial retinoic acid in the solution [2]: around 78% | approximate level of the initial retinoic acid [4, 13]: ~85% | approximate level of the initial retinoic acid ([4]; 24 hours): ~73% | degradation in UV light [7]: rapidly degraded

CC1(C)CCC(C)(C)c2cc(C#Cc3cccc(C(=O)NO)c3)ccc21 [11a(ii), 3-(5,5,8,8-Tetramethyl-5,6,7,8-tetrahydronaphthalen-2-ylethynyl)benzohydroxamic acid]
cytotoxicity: time to kill the cells (TERA2.cl.SP12 cells; TERA2.cl.SP12 cells, described as potent cytotoxicity): ≤ 4 days | effect on proliferation of the cultures (TERA2.cl.SP12 cells; cultures grown in its presence): halted proliferation almost instantly

CC1(C)CCC(C)(C)c2cc(C#Cc3ccc(C(=O)O)cc3)ccc21 [10a(i), 4-(5,5,8,8-Tetramethyl-5,6,7,8-tetrahydro-naphthalen-2-ylethynyl)benzoic acid]
stability by NMR ([1]; 3 days, dark under air and fluorescent light, DMSO (same conditions as ATRA)): completely stable | expression of differentiation antigens A2B5 and VINIS-53 [11]: marked increases in expression | expression of stem cell markers TRA-1-60 and SSEA-3 [11]: suppression | differentiation into neurons [6]: differentiate into well-defined neurons | epithelial plaques (cytokeratin-8) [8, 14]: very few, if any, epithelial plaques | formation of neurons / neuronal differentiation [8, 14]: consisting primarily of cells undergoing neuronal differentiation | nestin expression [8, 14]: strong expression for nestin | behaviour compared with natural ATRA ([8]; human pluripotent stem cells): essentially identical behaviour to natural ATRA | formation of neurons ([8]; morphology): induced the formation of morphologically identifiable neurons
